From US6967205B1, “Compounds with antibacterial and antiparasitic properties” (New Pharma Research Sweden AB, priority 1999, dated 2005)
≈ marks a conversion by molar mass, not a printed value.

Legend:
Assay in all cases: M.I.C. by broth dilution method (NCCLS 1988), gram-positive bacteria
Format in all cases: cell-based
Bacillus cereus = details: in vitro broth dilution
Description: (§1) The antibacterial activity of the present compounds was investigated by in vitro evaluation of their M.I.C. (Minimum Inhibitory Concentration) values. The evaluation was conducted in complete accordance with the “Broth dilution method”, as outlined by the U.S. National Committee for Clinical Laboratory Standards “NCCLS 1988”.
(§2) Solutions of the present compounds were prepared by dissolving 0.01 g of a test compound in either 10% KOH (aq) or a 10% KOH/DMF mixture, after which sterile, distilled H2O was added up to a total volume of 10 ml, thereby yielding a test compound concentration of 1 000 μg/ml.
(§3) In this evaluation, the antibacterial activity of the present compounds and enrofloxacin as reference compound was tested against seven strains of gram-positive bacteria, namely Bacillus subtilus (ATCC 6633), Bacillus cereus, Streptococcus faecium, Micrococcus Luteus (ATCC 9341), Staph. aureus (ATCC 29737), Staph. epidermidis (ATCC 12228) and Staphylococcus (ATCC 6538).

[1] = test system: Bacillus subtilus (ATCC 6633); details: for MIC: ATCC6633, in vitro broth dilution
Description: as §1, §2, §3

[2] = test system: Micrococcus Luteus (ATCC 9341); details: for MIC: ATCC9341, in vitro broth dilution, read-out: M.I.C. values Microc. Luteus
Description: as §1, §2, §3

[3] = test system: Staph. aureus (ATCC 29737); details: for MIC: Staphylococcus aureus, ATCC29737, in vitro broth dilution
Description: as §1, §2, §3

[4] = test system: Staph. epidermidis (ATCC 12228); details: for MIC: Staphylococcus epidermidis, ATCC12228, in vitro broth dilution
Description: as §1, §2, §3

[5] = test system: Staphylococcus (ATCC 6538); details: for MIC: ATCC6538, in vitro broth dilution, read-out: M.I.C. values Staph. (ATCC 6538)
Description: as §1, §2, §3

Streptococcus faecium = details: in vitro broth dilution; for MIC: Enterococcus faecium, read-out: M.I.C. values Streptoc. faecium
Description: as §1, §2, §3

[6] = in vitro broth dilution, unit assumed

Row | Structure (SMILES) | MIC (Bacillus cereus) [µg/mL] | MIC [1] [µg/mL] | MIC [2] [µg/mL] | MIC [3] [µg/mL] | MIC [4] [µg/mL] | MIC [5] [µg/mL] | MIC (Streptococcus faecium) [µg/mL] | M.I.C. values Bacillus cereus (Bacillus cereus; unit assumed) [µg/mL] | M.I.C. values Bacillus subtilus [1, 6] [µg/mL] | M.I.C. values Microc. Luteus [2, 6] [µg/mL] | M.I.C. values Staph. aureus [3, 6] [µg/mL] | M.I.C. values Staph. epidermidis [4, 6] [µg/mL] | M.I.C. values Staph. (ATCC 6538) [5, 6] [µg/mL] | M.I.C. values Streptoc. faecium (Streptococcus faecium; unit assumed) [µg/mL]
1 | O=C(O)c1cn(C2CC2)c2cc(N(CC3CCCO3)c3cncc(Cl)n3)c(F)cc2c1=O (stereo not shown) [JA 141, 7-[(6-chloro-2-pyrazinyl)(tetrahydro-2-furanylmethyl)amino]-1-cyclopropyl-6-fluoro-4-oxo-1,4-dihydro-3-quinolinecarboxylic acid] | 0.12 (≈ 0.262 µM) | 0.12 (≈ 0.262 µM) | 2 (≈ 4.36 µM) | 0.25 (≈ 0.545 µM) | 0.12 (≈ 0.262 µM) | 0.12 (≈ 0.262 µM) | 1 (≈ 2.18 µM) | – | – | – | – | – | – | –
2 | O=C(O)c1cn(C2CC2)c2cc(N(CCc3ccccn3)CC3CCCO3)c(F)cc2c1=O (stereo not shown) [JA 146, 1-cyclopropyl-6-fluoro-4-oxo-7-[[2-(2-pyridinyl)ethyl](tetrahydro-2-furanylmethyl)amino]-1,4-dihydro-3-quinolinecarboxylic acid] | 0.12 (≈ 0.266 µM) | 0.12 (≈ 0.266 µM) | 2 (≈ 4.43 µM) | 0.12 (≈ 0.266 µM) | 0.12 (≈ 0.266 µM) | 0.12 (≈ 0.266 µM) | 1 (≈ 2.21 µM) | – | – | – | – | – | – | –
3 | COCC(C)N(c1cc2c(cc1F)c(=O)c(C(=O)O)cn2C1CC1)S(=O)(=O)c1ccc([N+](=O)[O-])cc1 (stereo not shown) [JA 149, 1-cyclopropyl-6-fluoro-7-{(2-methoxy-1-methylethyl)[(4-nitrophenyl)sulfonyl]amino}-4-oxo-1,4-dihydro-3-quinolinecarboxylic acid] | 0.12 (≈ 0.231 µM) | 0.12 (≈ 0.231 µM) | 2 (≈ 3.85 µM) | 0.12 (≈ 0.231 µM) | 0.12 (≈ 0.231 µM) | 0.12 (≈ 0.231 µM) | 2 (≈ 3.85 µM) | – | – | – | – | – | – | –
4 | Cc1ccc(S(=O)(=O)N2CCN(c3cc4c(cc3F)c(=O)c(C(=O)O)cn4C3CC3)CC2)cc1 [JA 2, 1-cyclopropyl-6-fluoro-7-{4-[(4-methylphenyl)sulfonyl]-1-piperazinyl}-4-oxo-1,4-dihydro-3-quinolinecarboxylic acid] | 0.06 (≈ 0.124 µM) | 0.12 (≈ 0.247 µM) | 0.5 (≈ 1.03 µM) | 0.12 (≈ 0.247 µM) | 0.06 (≈ 0.124 µM) | 0.03 (≈ 0.0618 µM) | 0.5 (≈ 1.03 µM) | – | – | – | – | – | – | –
5 | CCn1cc(C(=O)O)c(=O)c2cc(F)c(N3CCN(S(=O)(=O)c4ccc(OC)cc4)CC3)cc21 [JA 21, 1-ethyl-6-fluoro-7-{4-[(4-methoxyphenyl)sulfonyl]-1-piperazinyl}-4-oxo-1,4-dihydro-3-quinolinecarboxylic acid] | 0.01 (≈ 0.0204 µM) | 0.25 (≈ 0.511 µM) | 2 (≈ 4.09 µM) | 0.25 (≈ 0.511 µM) | 0.06 (≈ 0.123 µM) | 0.06 (≈ 0.123 µM) | 0.5 (≈ 1.02 µM) | – | – | – | – | – | – | –
6 | O=C(O)c1cn(C2CC2)c2cc(N(CC3CCCO3)S(=O)(=O)c3ccc4ccccc4c3)c(F)cc2c1=O (stereo not shown) [JA 136, 1-cyclopropyl-6-fluoro-7-[(2-naphthylsulfonyl)(tetrahydro-2-furanylmethyl)amino]-4-oxo-1,4-dihydro-3-quinolinecarboxylic acid] | 0.06 (≈ 0.112 µM) | 0.12 (≈ 0.224 µM) | 2 (≈ 3.73 µM) | 0.12 (≈ 0.224 µM) | 0.12 (≈ 0.224 µM) | 0.12 (≈ 0.224 µM) | 0.5 (≈ 0.932 µM) | – | – | – | – | – | – | –
7 | O=C(O)c1cn(C2CC2)c2cc(N3CCN(S(=O)(=O)Cc4ccccc4)CC3)c(F)cc2c1=O [JA 9, 7-[4-(benzylsulfonyl)-1-piperazinyl]-1-cyclopropyl-6-fluoro-4-oxo-1,4-dihydro-3-quinolinecarboxylic acid] | 0.25 (≈ 0.515 µM) | 0.25 (≈ 0.515 µM) | 1 (≈ 2.06 µM) | ≥ 0.12 | 0.12 (≈ 0.247 µM) | 0.06 (≈ 0.124 µM) | 1 (≈ 2.06 µM) | – | – | – | – | – | – | –
8 | O=C(O)c1cn(C2CC2)c2cc(N(Cc3ccco3)C(=O)c3cccs3)c(F)cc2c1=O [JA 124, 1-cyclopropyl-6-fluoro-7[(2-furylmethyl)(2-thienylcarbonyl)amino]-4-oxo-1,4-dihydro-3-quinolinecarboxylic acid] | 0.12 (≈ 0.265 µM) | 0.12 (≈ 0.265 µM) | 2 (≈ 4.42 µM) | 0.12 (≈ 0.265 µM) | 0.12 (≈ 0.265 µM) | 0.12 (≈ 0.265 µM) | 1 (≈ 2.21 µM) | – | – | – | – | – | – | –
9 | O=C(O)c1cn(C2CC2)c2cc(N(CC3CCCO3)C(=O)c3cccs3)c(F)cc2c1=O (stereo not shown) [JA 140, 1-cyclopropyl-6-fluoro-4-oxo-7-[(tetrahydro-2-furanylmethyl)(2-thienylcarbonyl)amino]-1,4-dihydro-3-quinolinecarboxylic acid] | 0.06 (≈ 0.131 µM) | 0.06 (≈ 0.131 µM) | 1 (≈ 2.19 µM) | 0.12 (≈ 0.263 µM) | 0.12 (≈ 0.263 µM) | 0.06 (≈ 0.131 µM) | 0.5 (≈ 1.1 µM) | – | – | – | – | – | – | –
10 | O=C(O)c1cn(C2CC2)c2cc(NCCN3CCCCC3)c(F)cc2c1=O [JA 76, 1-cyclopropyl-6-fluoro-4-oxo-7-{[2-(1-piperidinyl)ethyl]-amino}-1,4-dihydro-3-quinolinecarboxylic acid] | 0.12 (≈ 0.321 µM) | 0.12 (≈ 0.321 µM) | 2 (≈ 5.36 µM) | 0.12 (≈ 0.321 µM) | 0.12 (≈ 0.321 µM) | 0.06 (≈ 0.161 µM) | 1 (≈ 2.68 µM) | – | – | – | – | – | – | –
11 | O=C(O)c1cn(C2CC2)c2cc(NC3CCC(C(=O)O)CC3)c(F)cc2c1=O (stereo not shown) [JA 69, 7-[(4-carboxycyclohexyl)amino]-1-cyclopropyl-6-fluoro-4-oxo-1,4-dihydro-3-quinolinecarboxylic acid] | 0.06 (≈ 0.154 µM) | 0.12 (≈ 0.309 µM) | 2 (≈ 5.15 µM) | 0.12 (≈ 0.309 µM) | 0.12 (≈ 0.309 µM) | 0.12 (≈ 0.309 µM) | 2 (≈ 5.15 µM) | – | – | – | – | – | – | –
12 | COc1ccc(S(=O)(=O)N(CC2CCCO2)c2cc3c(cc2F)c(=O)c(C(=O)O)cn3C2CC2)cc1 (stereo not shown) [JA 135, 1-cyclopropyl-6-fluoro-7-[[(4-methoxyphenyl)sulfonyl](tetrahydro-2-furanylmethyl)amino]-4-oxo-1,4-dihydro-3-quinolinecarboxylic acid] | 0.06 (≈ 0.116 µM) | 0.12 (≈ 0.232 µM) | 2 (≈ 3.87 µM) | 0.12 (≈ 0.232 µM) | 0.12 (≈ 0.232 µM) | 0.12 (≈ 0.232 µM) | 0.5 (≈ 0.968 µM) | – | – | – | – | – | – | –
13 | CS(=O)(=O)N1CCN(c2cc3c(cc2F)c(=O)c(C(=O)O)cn3C2CC2)CC1 [JA 10, 1-cyclopropyl-6-fluoro-7-[4-(methylsulfonyl)-1-piperazinyl]-4-oxo-1,4-dihydro-3-quinolinecarboxylic acid] | 0.12 (≈ 0.293 µM) | 0.5 (≈ 1.22 µM) | 2 (≈ 4.88 µM) | 0.25 (≈ 0.611 µM) | 0.25 (≈ 0.611 µM) | 0.25 (≈ 0.611 µM) | 1 (≈ 2.44 µM) | – | – | – | – | – | – | –
14 | CN(CCCN)CCCNc1cc2c(cc1F)c(=O)c(C(=O)O)cn2C1CC1 [JA 102, 7-({3-[(3-aminopropyl)(methyl)amino]propyl}amino)-1-cyclopropyl-6-fluoro-4-oxo-1,4-dihydro-3-quinolinecarboxylic acid] | 0.06 (≈ 0.154 µM) | 0.12 (≈ 0.307 µM) | 2 (≈ 5.12 µM) | 0.06 (≈ 0.154 µM) | 0.12 (≈ 0.307 µM) | 0.12 (≈ 0.307 µM) | 1 (≈ 2.56 µM) | – | – | – | – | – | – | –
15 | O=C(O)c1cn(C2CC2)c2cc(N(CCN3CCCCC3)C(=O)c3cccs3)c(F)cc2c1=O [JA 128, 1-cyclopropyl-6-fluoro-4-oxo-7-[[2-(1-piperidinyl)ethyl]-(2-thienylcarbonyl)amino]-1,4-dihydro-3-quinolinecarboxylic acid] | 0.06 (≈ 0.124 µM) | 0.12 (≈ 0.248 µM) | 2 (≈ 4.14 µM) | 0.12 (≈ 0.248 µM) | 0.06 (≈ 0.124 µM) | 0.12 (≈ 0.248 µM) | 1 (≈ 2.07 µM) | – | – | – | – | – | – | –
16 | CC(=O)CC(=O)N(CC1CCCO1)c1cc2c(cc1F)c(=O)c(C(=O)O)cn2C1CC1 (stereo not shown) [JA 144] | – | – | – | – | – | – | – | 0.12 | 0.12 | 1 | 0.12 | 0.12 | 0.06 | 0.5
